# Assays:
# [1] = tested on: more than 80 receptors and enzymes; assay: PanLab screening against more than 80 receptors and enzymes; conditions: concentrations greater than 10 μM
# [2] = Oral pharmacokinetics in rats; format: in vivo
smiles,measurement,setting,value
"O=C1CC[C@H](/C=C/C(O)C(F)(F)c2ccccc2)N1CCCCCCc1nnn[nH]1 (stereo partly drawn) [Compound 7, (5R)-5[(1E)-4,4-difluoro-3-hydroxy-4-phenylbut-1-enyl]-1-[6-(1H-tetraazol-5-yl)hexyl]pyrrolidin-2-one]",activity in PanLab screening,[1],no significant activities
same,terminal elimination half life,[2],good
same,oral bioavailability,[2]; oral,good

# From patent US20050239872A1, “1,5-distributed pyrrolid-2-one derivatives for use as ep4 receptor agonists in the teatment of eye diseases such as glaucoma” (priority 2002, published 2005)
